# From BindingDB's records for doi:10.1021/jm00092a001 (Wyeth-Ayerst Research, 1992)
# How the values were obtained:
# [1] = The compound was tested for inhibitory activity against 5-Lipoxygenase in guinea pig polymorphonuclear leukocytes
# [2] = biological target: Polyunsaturated fatty acid 5-lipoxygenase (Mus musculus) (UniProt P48999); experiment: The compound was tested for inhibitory activity against 5-lipoxygenase in mouse
# Sequence of Polyunsaturated fatty acid 5-lipoxygenase (Mus musculus) (P48999 whole entry, looked up): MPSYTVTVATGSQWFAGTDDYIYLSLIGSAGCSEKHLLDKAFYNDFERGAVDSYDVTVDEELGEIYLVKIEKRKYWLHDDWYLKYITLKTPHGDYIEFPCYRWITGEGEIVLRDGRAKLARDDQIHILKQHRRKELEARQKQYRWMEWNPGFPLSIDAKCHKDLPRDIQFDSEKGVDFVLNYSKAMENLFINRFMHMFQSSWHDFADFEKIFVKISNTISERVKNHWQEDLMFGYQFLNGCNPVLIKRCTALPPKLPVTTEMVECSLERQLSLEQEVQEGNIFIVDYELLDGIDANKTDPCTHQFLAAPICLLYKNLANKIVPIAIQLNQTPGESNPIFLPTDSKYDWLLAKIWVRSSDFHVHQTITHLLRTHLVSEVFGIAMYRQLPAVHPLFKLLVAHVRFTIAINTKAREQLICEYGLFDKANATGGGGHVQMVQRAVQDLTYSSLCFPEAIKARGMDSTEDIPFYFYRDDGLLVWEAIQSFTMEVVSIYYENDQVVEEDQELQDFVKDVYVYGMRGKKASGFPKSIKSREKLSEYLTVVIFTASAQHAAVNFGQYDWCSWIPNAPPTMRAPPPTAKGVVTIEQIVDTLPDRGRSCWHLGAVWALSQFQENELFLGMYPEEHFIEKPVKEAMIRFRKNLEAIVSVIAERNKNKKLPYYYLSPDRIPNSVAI
Structure (SMILES),IC50 [1],IC50 [2]
Cc1ccc(C)n1-c1ccc(/C=C/CC(=O)N(C)O)cc1,600 nM,
Cc1nc(NCCCCCCc2ccccc2)nc(C)c1O,,300 nM
